Measured values published in PMC7760690, “Neuroprotective Metabolites from Vietnamese Marine Derived Fungi of Aspergillus and Penicillium Genera” (Marine Drugs, 2020).
Like-named read-outs stand apart in the source and are kept apart here.

Columns and labels:
[1] = cited from earlier work
[2] = tested on: rotenone-treated Neuro-2a cells; assay: ROS level in rotenone-treated cells (H2DCFDA); assay type: cell-based, murine; conditions: compounds 1-5; compound 10 µM 1 h, rotenone 10 µM 1 h
Experimental: (§1) The murine neuroblastoma cell line Neuro-2a was purchased from ATCC.
(§2) Neuro-2a cells were cultured in DMEM medium containing 10% fetal bovine serum (Biolot, St. Petersburg, Russia) and 1% penicillin/streptomycin (Biolot, St. Petersburg, Russia). Cells were incubated at 37 °C in a humidified atmosphere containing 5% (v/v) CO2 [71].
(§3) The cells (1 × 10^4 cells/well of a 96-well plate) were incubated with compound solutions (10 µM) during 1 h. Then, 6-OHDA/PQ/rotenone were added to cell suspension to resulting concentration of 50 µM, 500 µM and 10 µM respectively for incubation during 1 h. Cells incubated without neurotoxins and compounds and with neurotoxins alone were used as positive and negative controls, respectively. The 20 µL of 2,7-dichlorodihydrofluorescein diacetate solution (H2DCFDA, Molecular Probes, Eugene, OR, USA) was added to each well (10 µM, final concentration) and the plate was incubated for an additional 10 min at 37 °C. The intensity of dichlorofluorescein fluorescence was measured with PHERAstar FS plate reader (BMG Labtech, Ortenberg, Germany) at λex = 485 nm and λem = 518 nm. The data were processed by MARS Data Analysis v. 3.01R2 (BMG Labtech, Germany). The results were presented as the percent of positive control data.

[3] = tested on: Neuro-2a cells treated with 6-OHDA; assay: 6-OHDA-induced PD cell model, cell viability (MTT); assay type: cell-based, murine; conditions: compounds 1-5; 1 and/or 10 µM; 6-OHDA 50 µM; 24 h
Experimental: as §1, §2
(§4) The neuroblastoma Neuro-2a line cells (1 × 10^4 cells/well) were treated with the test compounds at concentrations of 1 and/or 10 µM for 1 h, and then the neurotoxins were added to the neuroblastoma cell suspensions. Rotenone (Sigma-Aldrich, USA) was used at the concentration of 10 µM. Paraquat (Sigma-Aldrich, USA) was used at 500 µM. 6-Hydroxydopamine (Sigma-Aldrich, USA) was used at 50 µM. Cells incubated without neurotoxins and the test compounds and cells incubated with neurotoxins only were used as positive and negative controls, respectively. After 24 h of incubation, the cell viabilities were measured using the MTT method. The results are presented as the percent of positive control data.

[4] = tested on: K562, BEL-7042, SGC-7901, A-549 and Hela cell lines; parameters: method as in PMID 30946944; conditions: cited from earlier work
[5] = tested on: methicillin-resistant Staphylococcus aureus (MRSA), S. aureus, Enterococcus faecalis and Acinetobacter baumannii, E. coli and Klebsiella pneumonia; parameters: method as in PMID 30946944; conditions: cited from earlier work
[6] = tested on: PQ-treated Neuro-2a cells; assay: ROS level in PQ-treated cells (H2DCFDA); assay type: cell-based, murine; conditions: compounds 1-5; compound 10 µM 1 h, PQ 500 µM 1 h
Experimental: as §1, §2
as §3, with “The cells (1 × 10^4 cells/well of a 96-well plate) were incubated with compound solutions (10 µM) during 1 h.” left out

[7] = tested on: murine lymphoma L5178Y cell line; parameters: method as in doi:10.1016/j.phytol.2015.06.003; conditions: cited from earlier work
[8] = DPPH radical scavenger assay; conditions: 30 min; for DPPH Radical Scavenging 100 µM % of MeOH: compound 100 µM, absorbance 520 nm
Experimental: The DPPH radical scavenging activities of the compounds were tested as described.
The compounds were dissolved in MeOH, and the solutions (120 µL) were dispensed into wells of a 96-well microplate. In all, 30 µL of the DPPH (Sigma-Aldrich, Steinheim, Germany) solution in MeOH (7.5 × 10^−3 M) was added to each well. The concentrations of the test compounds in the mixtures were 10 and 100 µM. The mixtures were shaken and left to stand for 30 min, and the absorbance of the resulting solutions was measured at 520 nm with a microplate reader MultiscanFC (ThermoScientific, Waltham, MA, USA). The concentration scavenging 50% of the DPPH radical (EC50) was calculated for each investigated compound.

[9] = tested on: rotenone-treated Neuro-2a cells; assay: Rotenone-induced PD cell model, cell viability (MTT); assay type: cell-based, murine; conditions: compounds 1-5; 1 and/or 10 µM; rotenone 10 µM; 24 h
Experimental: as §1, §2, §4

[10] = tested on: PQ-treated Neuro-2a cells; assay: Paraquat-induced PD cell model, cell viability (MTT); assay type: cell-based, murine; conditions: compounds 1-5; 1 and/or 10 µM; paraquat 500 µM; 24 h
Experimental: as §1, §2, §4

MTT cytotoxicity assay = assay type: cell-based, murine; conditions: mouse, Neuro-2a neuroblastoma cells; Neuro-2a cells, MTT
Experimental: as §1, §2
(§5) The in vitro cytotoxicity of the individual substances was evaluated using an MTT (3-(4,5-dimethylthiazol-2-yl)-2,5-diphenyltetrazolium bromide) assay, which was performed according to the manufacturer’s instructions (Sigma-Aldrich, USA). Absorbance of the converted formazan was measured using a Multiskan FC plate photometer (Thermo Scientific, Waltham, MA, USA) at λ = 570 nm. The results were presented as percent of control data, and concentration of cell viability inhibition on 50% (IC50) was calculated.

[11] = tested on: neuroblastoma Neuro-2a cells; assay: MTT cytotoxicity assay; assay type: cell-based, murine; conditions: up to 100 µM
Experimental: as §1, §2, §5

[12] = tested on: a number of other cell lines; parameters: method as in PMID 17994702, PMID 30658264; conditions: cited from earlier work
HeLa = tested on: HeLa; parameters: method as in PMID 24871461; conditions: cited from earlier work
[13] = tested on: 6-OHDA-treated Neuro-2a cells; assay: ROS level in 6-OHDA-treated cells (H2DCFDA); assay type: cell-based, murine; conditions: compounds 1-5; compound 10 µM 1 h, 6-OHDA 50 µM 1 h
Experimental: as §1, §2, §3

[14] = tested on: several microbial pathogens; parameters: method as in PMID 17994702, doi:10.1016/j.phytol.2015.04.009; conditions: cited from earlier work

SMILES: Cc1cc(O)c(C)c(=O)o1 [Compound 4, 4-hydroxy-3,6-dimethyl-2-pyrone]
- EC50 ([1]; reported earlier, read-out: DPPH Radical Scavenging EC50): 500 µM
- DPPH radical scavenging activity ([1]; via donation of a hydrogen atom and adduct forming): shows DPPH radical scavenging activity
- influence on ROS level in rotenone-treated cells [2]: significantly reduced the ROS level
- effect on viability of Neuro-2a cells incubated with 6-OHDA [3]: did not demonstrate any protective effects
- cytotoxic activities [4]: ineffective
- antibacterial activities [5]: ineffective
- influence on ROS level in PQ-treated cells [6]: had almost no effect
- cytotoxicity [7]: weak cytotoxicity
- DPPH Radical Scavenging 100 µM % of MeOH [8]: 87.2 ± 1.4 % of MeOH
- effect on viability of rotenone-treated cells [9]: did not affect
- effect on viability of PQ-treated cells [10]: had no effect on viability
- IC50 (MTT cytotoxicity assay): > 100 µM
- cytotoxicity against Neuro-2a cells [11]: not cytotoxic

SMILES: C[C@H](O)CC1=C[C@H](O)[C@@H](C)OC1=O [Compound 5, Dihydroaspyrone]
- influence on ROS level in rotenone-treated cells [2]: significantly reduced the ROS level
- effect on viability of Neuro-2a cells incubated with 6-OHDA [3]: did not demonstrate any protective effects
- cytotoxicity [12]: did not show cytotoxicity
- influence on ROS level in PQ-treated cells [6]: significantly reduced the ROS level
- EC50 ([8]; MeOH, read-out: DPPH Radical Scavenging EC50): > 100 µM
- DPPH Radical Scavenging 100 µM % of MeOH [8]: 95.2 ± 1.0 % of MeOH
- effect on viability of rotenone-treated cells [9]: did not affect
- effect on viability of PQ-treated cells [10]: statistically increased viability of PQ-treated cells only
- cytotoxicity (HeLa): weak cytotoxicity
- IC50 (MTT cytotoxicity assay): > 100 µM
- cytotoxicity against Neuro-2a cells [11]: not cytotoxic
- influence on ROS level in 6-OHDA-treated cells [13]: reduced ROS level
- antimicrobial activity [14]: did not show
